Results on three compounds are retold here after paper PMC4289911, “[^68Ga]FSC-(RGD)3 a trimeric RGD peptide for imaging αvβ3 integrin expression based on a novel siderophore derived chelating scaffold—synthesis and evaluation” (Nuclear Medicine and Biology, 2015).

In assay [1] the target is T1, αvβ3 integrin (Homo sapiens, UniProt P05106+P06756).
T1 construct: purchased Millipore-Chemicon, Temecula, CA, USA
The experiment in a line: Binding affinity for immobilized αvβ3 integrin, displacement of [125I]c(RGDyV). The note with it: isolated αvβ3 integrin coated on 96-well plates, radioligand [125I]c(RGDyV), 0.001 to 100 nM peptide, three independent measurements. On the procedure:
In vitro binding affinities of FSC-(RGD)3 and cyclo(-Arg-Gly-Asp-DTyr-Val-) (c(RGDyV)) as control were determined by using isolated αvβ3 integrin (Millipore-Chemicon, Temecula, CA, USA) and ^125I labeled c(RGDyV) as radioligand. The detailed procedure can be found in [16]. Briefly, 96-well plates (Nunc, Thermo Fisher Scientific, Vienna, Austria) were coated for 16 hours at 4 °C with the αvβ3 integrin. Subsequently, the immobilized receptors were incubated with [^125I]c(RGDyV) and increasing concentrations of the corresponding peptide ranging from 0.001 to 100 nM. The unbound fraction of radioligand was washed out, and receptor bound activity was obtained treating the wells with sodium hydroxide (NaOH) solution (2 M). IC50 values were determined by fitting the percent inhibition using OriginPro 8.5 software (Northhampton, MA, USA). Three independent measurements were made.

In assay [2] the target is T1, αvβ3 integrin. The note with it: comparison value; read-out: IC50, binding affinity for αvβ3 integrin; cited from earlier work. From the text: A high binding affinity to the isolated αvβ3 integrin for [^68Ga]FSC-(RGD)3 was found. […] A remarkable enhancement of internalized activity in comparison to [^68Ga]NODAGA-RGD or other monomeric RGD derivatives, [16] was observed. Moreover, ...

Read-outs that look alike come from different tables or passages of the source.

T1 sequence (P06756 31-889 limits assumed): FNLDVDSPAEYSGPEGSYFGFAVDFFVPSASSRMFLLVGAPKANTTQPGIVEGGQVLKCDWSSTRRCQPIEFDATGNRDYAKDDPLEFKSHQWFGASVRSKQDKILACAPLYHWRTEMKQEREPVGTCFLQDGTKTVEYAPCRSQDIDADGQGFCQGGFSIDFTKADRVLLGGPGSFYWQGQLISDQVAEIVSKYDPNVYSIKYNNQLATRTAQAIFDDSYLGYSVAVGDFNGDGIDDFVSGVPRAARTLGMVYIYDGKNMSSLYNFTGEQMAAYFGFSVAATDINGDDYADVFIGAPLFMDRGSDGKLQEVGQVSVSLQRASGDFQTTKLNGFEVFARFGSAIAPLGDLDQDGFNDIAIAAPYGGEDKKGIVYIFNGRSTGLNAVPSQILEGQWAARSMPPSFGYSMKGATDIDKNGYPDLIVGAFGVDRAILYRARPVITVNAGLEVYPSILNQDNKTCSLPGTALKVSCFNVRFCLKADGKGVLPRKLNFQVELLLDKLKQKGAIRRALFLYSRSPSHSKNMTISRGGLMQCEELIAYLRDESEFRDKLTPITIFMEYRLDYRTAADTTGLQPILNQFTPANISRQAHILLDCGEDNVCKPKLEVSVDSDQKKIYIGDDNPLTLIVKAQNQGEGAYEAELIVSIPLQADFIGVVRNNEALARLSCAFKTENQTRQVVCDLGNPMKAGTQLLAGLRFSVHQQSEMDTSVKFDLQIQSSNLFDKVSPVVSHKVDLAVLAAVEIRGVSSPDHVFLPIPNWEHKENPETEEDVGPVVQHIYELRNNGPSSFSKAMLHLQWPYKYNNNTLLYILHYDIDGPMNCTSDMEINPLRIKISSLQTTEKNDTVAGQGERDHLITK
T1 sequence (P06756 891-1048 partner limits assumed): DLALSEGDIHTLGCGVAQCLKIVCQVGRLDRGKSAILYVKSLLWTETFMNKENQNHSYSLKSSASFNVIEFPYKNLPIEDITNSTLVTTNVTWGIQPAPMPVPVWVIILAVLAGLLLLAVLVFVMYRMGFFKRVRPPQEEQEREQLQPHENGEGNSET
T1 sequence (P05106 27-788): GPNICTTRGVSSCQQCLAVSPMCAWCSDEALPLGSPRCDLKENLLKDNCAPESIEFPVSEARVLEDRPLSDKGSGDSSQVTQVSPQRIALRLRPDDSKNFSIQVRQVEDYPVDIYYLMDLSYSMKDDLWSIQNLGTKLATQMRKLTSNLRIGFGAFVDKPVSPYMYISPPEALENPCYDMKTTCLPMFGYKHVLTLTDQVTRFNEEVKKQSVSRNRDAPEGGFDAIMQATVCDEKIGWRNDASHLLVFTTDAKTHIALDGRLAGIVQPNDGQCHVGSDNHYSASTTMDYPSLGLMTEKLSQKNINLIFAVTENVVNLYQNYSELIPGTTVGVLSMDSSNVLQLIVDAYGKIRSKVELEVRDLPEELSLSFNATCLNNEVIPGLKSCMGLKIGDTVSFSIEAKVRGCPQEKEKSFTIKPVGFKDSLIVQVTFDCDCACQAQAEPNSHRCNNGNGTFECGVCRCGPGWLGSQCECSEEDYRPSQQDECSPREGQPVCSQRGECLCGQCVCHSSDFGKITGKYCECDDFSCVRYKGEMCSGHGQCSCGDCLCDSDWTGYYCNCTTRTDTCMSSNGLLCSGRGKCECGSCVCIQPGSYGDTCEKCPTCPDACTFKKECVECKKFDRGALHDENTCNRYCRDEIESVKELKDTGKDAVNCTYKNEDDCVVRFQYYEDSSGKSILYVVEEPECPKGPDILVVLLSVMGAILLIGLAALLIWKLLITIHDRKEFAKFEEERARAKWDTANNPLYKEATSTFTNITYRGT

For `CC(C)[C@@H]1NC(=O)[C@@H](Cc2ccc(O)cc2)NC(=O)[C@H](CC(=O)O)NC(=O)CNC(=O)[C@H](CCCNC(=N)N)NC1=O` [c(RGDyV), cyclo(-Arg-Gly-Asp-DTyr-Val-)], the IC50 at αvβ3 integrin [1] worked out at 3.2 ± 1.2 nM.
Consider “[^68Ga]NODAGA-RGD: established monomeric 68Ga-labeled RGD peptide”, for which the IC50 with αvβ3 integrin [2] is 4.7 nM.
As for `C/C1=C/C(=O)N(O)CCC[C@H](NC(=O)CCC(=O)NCCCC[C@@H]2NC(=O)[C@@H](Cc3ccccc3)NC(=O)[C@H](CC(=O)O)NC(=O)CNC(=O)[C@H](CCCNC(=N)N)NC2=O)C(=O)OCC/C(C)=C\C(=O)N(O)CCC[C@H](NC(=O)CCC(=O)NCCCC[C@@H]2NC(=O)[C@@H](Cc3ccccc3)NC(=O)[C@H](CC(=O)O)NC(=O)CNC(=O)[C@H](CCCNC(=N)N)NC2=O)C(=O)OCC/C(C)=C\C(=O)N(O)CCC[C@H](NC(=O)CCC(=O)NCCCC[C@@H]2NC(=O)[C@@H](Cc3ccccc3)NC(=O)[C@H](CC(=O)O)NC(=O)CNC(=O)[C@H](CCCNC(=N)N)NC2=O)C(=O)OCC1` [FSC-(RGD)3], the IC50 at αvβ3 integrin [1] was determined as 1.8 ± 0.6 nM.

For orientation: IC50 means the concentration that inhibits the measured activity by half.
